Peptide text beside a SMILES is read from it.
Tests used:
FPR2 = target: T1, FPR2 (Homo sapiens, UniProt P25090); test: Change in calcium activity by peptide (Fura-2) in RBL cells overexpressing FPR2; type: cell-based; details: calcium activity (Fura-2), graded per Table 3, read-out: EC50 for [Ca^2+] FPR2
T1 construct: expressed in transfected cells; host or cells: RBL cells (RBL-FPR2)
T1 sequence (P25090 1-351): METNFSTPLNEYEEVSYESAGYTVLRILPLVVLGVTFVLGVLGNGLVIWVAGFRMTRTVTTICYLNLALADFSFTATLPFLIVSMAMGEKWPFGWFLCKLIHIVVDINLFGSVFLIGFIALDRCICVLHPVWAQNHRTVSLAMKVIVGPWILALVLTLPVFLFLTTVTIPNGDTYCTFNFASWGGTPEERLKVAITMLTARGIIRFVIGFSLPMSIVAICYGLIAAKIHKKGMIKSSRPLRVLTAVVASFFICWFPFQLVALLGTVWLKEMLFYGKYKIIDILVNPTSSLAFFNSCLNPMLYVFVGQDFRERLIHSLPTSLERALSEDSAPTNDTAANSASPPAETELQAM
Method: The present inventors observed changes in calcium ion permeability to confirm whether the immunomodulatory peptide candidates prepared according to one example of the present invention activate the immune function of a living organism. Specifically, the concentration of calcium ions in cells was measured to confirm whether the peptides activate FPR2.
A peptide dissolved in water or 50% DMSO at a concentration of 0.5 mM was prepared by diluting it to an appropriate concentration in HBSS (Sigma, #55037C)+20 mM HEPES buffer.
In this experiment, the cells were cultured in DMEM (Lonza, #BE12-604F) containing 10% fetal bovine serum (FBS) and 1% penicillin-streptomycin under conditions of 37° C. and 5% CO2.
(§1) The day before measuring calcium activity, the cells were prepared at 3×10^5 cells per well in a 96-well flat clear bottom black plate (Costar, #3603). The prepared cells were treated with a Fura-2 QBT calcium kit (component A; Molecular Devices, #8197) at the same volume per well. After incubation at 37° C. for 1 hour, the cells were incubated in a dark room at room temperature for 30 minutes. After the Fura-2-treated cells, the prepared peptide, and a dedicated tip were placed at each section of FlexStation 3 Multi-Mode Microplate Reader (Molecular Devices, #Flex3), changes in calcium activity caused by the peptides were measured using SoftMax Pro 7 Software (Molecular Devices, #FLEX3-INSTALL-OS).

FPR1 = target: T2, FPR1 (Homo sapiens, UniProt P21462); test: Change in calcium activity by peptide, FPR1 activation effect; type: cell-based; details: calcium activity (Fura-2), graded per Table 3, read-out: EC50 for [Ca^2+] FPR1
T2 sequence (P21462 1-350): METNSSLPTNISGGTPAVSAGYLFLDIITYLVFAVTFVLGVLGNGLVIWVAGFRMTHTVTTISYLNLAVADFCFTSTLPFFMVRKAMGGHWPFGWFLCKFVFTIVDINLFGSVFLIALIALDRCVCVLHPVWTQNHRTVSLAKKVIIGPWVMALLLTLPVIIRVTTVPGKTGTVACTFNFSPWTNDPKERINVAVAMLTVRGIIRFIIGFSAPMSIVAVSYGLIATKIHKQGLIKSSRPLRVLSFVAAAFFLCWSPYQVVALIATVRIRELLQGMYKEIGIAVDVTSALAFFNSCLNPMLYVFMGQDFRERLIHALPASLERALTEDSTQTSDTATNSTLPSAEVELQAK
Method: as §1, with “#FLEX3-INSTALL-OS). […]” for “#FLEX3-INSTALL-OS).”

Structure (SMILES)	EC50 (FPR2)	EC50 (FPR1)
CCCC(=O)N[C@@H](Cc1c[nH]cn1)C(=O)N[C@@H](Cc1c[nH]c2ccccc12)C(=O)N[C@@H](CCCCN)C(=O)N[C@@H](Cc1ccc(O)cc1)C(=O)N[C@@H](CCCCN)C(=O)N[C@@H](Cc1ccc(O)cc1)C(=O)N[C@H](CCSC)C(N)=O [Peptide 37] (HELM PEPTIDE1{[CCCC(=O)[*:2]].H.W.K.Y.K.Y.[dM].[am]}$$$$V2.0)	< 0.01 µM	> 10 µM
CSCC[C@H](NC(=O)[C@H](CCCNC(=N)N)NC(C)=O)C(=O)N[C@@H](CCCNC(=N)N)C(=O)N[C@@H](Cc1ccc(O)cc1)C(=O)N[C@@H](Cc1ccc(O)cc1)C(=O)N[C@H](C(=O)N[C@H](CCSC)C(N)=O)C(C)C [Peptide 98] (HELM PEPTIDE1{[ac].R.M.R.Y.Y.V.[dM].[am]}$$$$V2.0)	< 0.01 µM	1 to 10 µM
CSCC[C@@H](NC(=O)[C@H](Cc1ccc(O)cc1)NC(=O)[C@H](Cc1c[nH]c2ccccc12)NC(=O)[C@H](Cc1ccc(O)cc1)NC(=O)[C@H](CCCNC(=N)N)NC(=O)[C@@H](N)Cc1c[nH]c2ccccc12)C(N)=O [Peptide 79] (HELM PEPTIDE1{W.R.Y.W.Y.[dM].[am]}$$$$V2.0)	0.011 to 0.1 µM	> 10 µM
CSCC[C@H](NC(=O)[C@@H](N)CCCCN)C(=O)N[C@@H](CCCCN)C(=O)N[C@@H](Cc1ccc(O)cc1)C(=O)N[C@@H](CCCCN)C(=O)N[C@H](C(=O)N[C@H](CCSC)C(N)=O)C(C)C [Peptide 9] (HELM PEPTIDE1{K.M.K.Y.K.V.[dM].[am]}$$$$V2.0)	0.011 to 0.1 µM	> 10 µM
CSCC[C@@H](NC(=O)[C@@H](NC(=O)[C@H](CCCCN)NC(=O)[C@H](Cc1ccc(O)cc1)NC(=O)[C@H](CCCNC(=N)N)NC(=O)[C@@H](N)Cc1c[nH]c2ccccc12)C(C)C)C(N)=O [Peptide 3] (HELM PEPTIDE1{W.R.Y.K.V.[dM].[am]}$$$$V2.0)	< 0.01 µM	> 10 µM
CSCC[C@H](NC(=O)[C@H](CCCCN)NC(C)=O)C(=O)N[C@@H](CCCCN)C(=O)N[C@@H](Cc1ccc(O)cc1)C(=O)N[C@@H](CCCCN)C(=O)N[C@H](C(=O)N[C@H](CCSC)C(N)=O)C(C)C [Peptide 10] (HELM PEPTIDE1{[ac].K.M.K.Y.K.V.[dM].[am]}$$$$V2.0)	0.011 to 0.1 µM	> 10 µM
CSCC[C@@H](NC(=O)[C@@H](NC(=O)[C@H](Cc1ccccc1)NC(=O)[C@H](Cc1ccc(O)cc1)NC(=O)[C@H](CCCNC(=N)N)NC(=O)[C@H](Cc1c[nH]c2ccccc12)NC(=O)[C@@H](N)CCCNC(=N)N)C(C)C)C(N)=O [Peptide 160] (HELM PEPTIDE1{R.W.R.Y.F.V.[dM].[am]}$$$$V2.0)	0.011 to 0.1 µM	1 to 10 µM
CSCC[C@H](NC(C)=O)C(=O)N[C@@H](CCCCN)C(=O)N[C@@H](Cc1ccc(O)cc1)C(=O)N[C@@H](Cc1c[nH]c2ccccc12)C(=O)N[C@@H](Cc1ccc(O)cc1)C(=O)N[C@H](CCSC)C(N)=O [Peptide 90] (HELM PEPTIDE1{[ac].M.K.Y.W.Y.[dM].[am]}$$$$V2.0)	0.011 to 0.1 µM	> 10 µM
CCCC(=O)N[C@@H](Cc1c[nH]cn1)C(=O)N[C@@H](CCSC)C(=O)N[C@@H](CCCNC(=N)N)C(=O)N[C@@H](Cc1ccc(O)cc1)C(=O)N[C@@H](CCCCN)C(=O)N[C@@H](Cc1ccc(O)cc1)C(=O)N[C@H](CCSC)C(N)=O [Peptide 45] (HELM PEPTIDE1{[CCCC(=O)[*:2]].H.M.R.Y.K.Y.[dM].[am]}$$$$V2.0)	< 0.01 µM	> 10 µM
CCCCCCCC(=O)N1CCC[C@H]1C(=O)N[C@@H](CCSC)C(=O)N[C@@H](CCCCN)C(=O)N[C@@H](Cc1ccc(O)cc1)C(=O)N[C@@H](CCCCN)C(=O)N[C@H](C(=O)N[C@H](CCSC)C(N)=O)C(C)C [Peptide 28] (HELM PEPTIDE1{[CCCCCCCC(=O)[*:2]].P.M.K.Y.K.V.[dM].[am]}$$$$V2.0)	< 0.01 µM	> 10 µM
CSCC[C@H](NC(=O)[C@@H](N)Cc1c[nH]cn1)C(=O)N[C@@H](CCCNC(=N)N)C(=O)N[C@@H](Cc1ccc(O)cc1)C(=O)N[C@@H](CCCCN)C(=O)N[C@@H](Cc1ccc(O)cc1)C(=O)N[C@H](CCSC)C(N)=O [Peptide 44] (HELM PEPTIDE1{H.M.R.Y.K.Y.[dM].[am]}$$$$V2.0)	0.011 to 0.1 µM	> 10 µM
CCCC(=O)N1CCC[C@H]1C(=O)N[C@@H](CCSC)C(=O)N[C@@H](CCCNC(=N)N)C(=O)N[C@@H](Cc1ccc(O)cc1)C(=O)N[C@@H](CCCCN)C(=O)N1CCC[C@H]1C(=O)N[C@H](CCSC)C(N)=O [Peptide 64] (HELM PEPTIDE1{[CCCC(=O)[*:2]].P.M.R.Y.K.P.[dM].[am]}$$$$V2.0)	< 0.01 µM	> 10 µM
CCCC(=O)N[C@@H](Cc1c[nH]cn1)C(=O)N[C@@H](CCSC)C(=O)N[C@@H](CCCNC(=N)N)C(=O)N[C@@H](Cc1ccc(O)cc1)C(=O)N[C@@H](Cc1c[nH]c2ccccc12)C(=O)N[C@@H](Cc1ccc(O)cc1)C(=O)N[C@H](CCSC)C(N)=O [Peptide 93] (HELM PEPTIDE1{[CCCC(=O)[*:2]].H.M.R.Y.W.Y.[dM].[am]}$$$$V2.0)	< 0.01 µM	1 to 10 µM
CCCC(=O)N[C@@H](CCSC)C(=O)N[C@@H](CCCNC(=N)N)C(=O)N[C@@H](Cc1ccc(O)cc1)C(=O)N[C@@H](CCCCN)C(=O)N1CCC[C@H]1C(=O)N[C@H](CCSC)C(N)=O [Peptide 56] (HELM PEPTIDE1{[CCCC(=O)[*:2]].M.R.Y.K.P.[dM].[am]}$$$$V2.0)	< 0.01 µM	> 10 µM
CSCC[C@H](NC(=O)[C@@H]1CCCN1)C(=O)N[C@@H](CCCCN)C(=O)N[C@@H](Cc1ccc(O)cc1)C(=O)N[C@@H](CCCCN)C(=O)N[C@H](C(=O)N[C@H](CCSC)C(N)=O)C(C)C [Peptide 25] (HELM PEPTIDE1{P.M.K.Y.K.V.[dM].[am]}$$$$V2.0)	< 0.01 µM	> 10 µM
CSCC[C@@H](NC(=O)[C@H](Cc1ccc(O)cc1)NC(=O)[C@H](CCCNC(=N)N)NC(=O)[C@H](Cc1ccc(O)cc1)NC(=O)[C@H](CCCNC(=N)N)NC(=O)[C@H](Cc1c[nH]c2ccccc12)NC(=O)[C@@H](N)CCCNC(=N)N)C(N)=O [Peptide 48] (HELM PEPTIDE1{R.W.R.Y.R.Y.[dM].[am]}$$$$V2.0)	0.011 to 0.1 µM	> 10 µM
CSCC[C@@H](NC(=O)[C@H](Cc1ccc(O)cc1)NC(=O)[C@H](Cc1c[nH]c2ccccc12)NC(=O)[C@H](Cc1ccc(O)cc1)NC(=O)[C@H](CCCNC(=N)N)NC(=O)[C@H](Cc1c[nH]c2ccccc12)NC(=O)[C@H](CCCNC(=N)N)NC(C)=O)C(N)=O [Peptide 78] (HELM PEPTIDE1{[ac].R.W.R.Y.W.Y.[dM].[am]}$$$$V2.0)	< 0.01 µM	> 10 µM
CSCC[C@H](NC(=O)[C@H](CCCNC(=N)N)NC(C)=O)C(=O)N[C@@H](CCCNC(=N)N)C(=O)N[C@@H](Cc1ccc(O)cc1)C(=O)N[C@@H](Cc1ccc(O)cc1)C(=O)N1CCC[C@H]1C(=O)N[C@H](CCSC)C(N)=O [Peptide 119] (HELM PEPTIDE1{[ac].R.M.R.Y.Y.P.[dM].[am]}$$$$V2.0)	< 0.01 µM	0.101 to 1 µM
CSCC[C@@H](NC(=O)[C@@H](NC(=O)[C@H](Cc1ccc(O)cc1)NC(=O)[C@H](Cc1ccc(O)cc1)NC(=O)[C@H](CCCNC(=N)N)NC(=O)[C@H](Cc1c[nH]c2ccccc12)NC(=O)[C@@H](N)CCCNC(=N)N)C(C)C)C(N)=O [Peptide 94] (HELM PEPTIDE1{R.W.R.Y.Y.V.[dM].[am]}$$$$V2.0)	< 0.01 µM	1 to 10 µM
CCCC(=O)N[C@@H](CCSC)C(=O)N[C@@H](CCCNC(=N)N)C(=O)N[C@@H](Cc1ccc(O)cc1)C(=O)N[C@@H](CCCCN)C(=O)N[C@H](C(=O)N[C@H](CCSC)C(N)=O)C(C)C [Peptide 15] (HELM PEPTIDE1{[CCCC(=O)[*:2]].M.R.Y.K.V.[dM].[am]}$$$$V2.0)	< 0.01 µM	> 10 µM
